# Results from patent US9180164B2, “Compounds and methods of modulating angiogenesis” (THE CLEVELAND CLINIC FOUNDATION, priority 2011, dated 2015).
# Experiments:
# [1] = tested on: HUVECs (Human Umbilical vascular endothelial cells); assay: Tube formation assay on Matrigel with inhibitory peptide; type: cell-based; conditions: 8 h
# Procedure: The effect of αvβ3/VEGFR2 complex inhibiting peptides in accordance with the present invention on angiogenic function was assessed by tube formation assay on the basement membrane matrix preparation. […] Cells were washed twice with sterile PBS and seeded on Matrigel-coated plates in combination of presence/absence of VEGF and inhibitory peptide. Cells were further incubated at 37° C. for 8 h.
# [2] = tested on: mouse lung endothelial cells; conditions: 20 ng/ml VEGF, 8 h
# Procedure: The formation of vascular tube-like structures by wild type and DiYF mouse lung endothelial cells were assessed on the basement membrane matrix preparation. Six well plates were coated with 0.5 ml of Matrigel according to the manufacturer's instructions. Wild type and DiYF mouse lung endothelial cells were detached from the tissue culture flasks using 20 mM EDTA. Cells were washed twice with sterile 1×PBS and seeded on Matrigel coated plate. Medium was supplemented with or without 20 ng/ml VEGF and further incubated at 37° C. for 8 h. The tube formation was observed using an inverted phase contrast microscope (Leica) and photographs were taken from each well. Using ImagePro software, the degree of tube formation was quantified by measuring the length of tubes in random fields.
# αvβ3 integrin = assay: WOW-1 binding assay, HUVECs; type: cell-based, Human; conditions: FACS analysis
# Procedure: Semiconfluent HUVECs were serum starved for 4 h and further stimulated with 20 ng/mL VEGF-A165 or VEGFDΔNΔC. WOW-1 Fab was added to a final concentration of 30 μg/mL, followed by addition of FITC-conjugated goat anti-mouse IgG at 10 μg/mL. After 30 min cells were fixed with 3.7% formaldehyde in PBS for 15 min, washed twice with PBS, and fluorescence-activated cell sorting (FACS) was performed using a FACS Calibur (Becton Dickinson, San Jose, Calif.) and data were analyzed using CellQuest software.
substance,measurement,setting,value
VEGF,endothelial cell tube formation induced (length of tubes),[1],at least 450 μm/mm^2
same,effect on length of the tubes,[2]; DiYF EC,a little effect
same,increase in the length of the tubes,[2]; WT EC,about 3 fold
same,increase of WOW-1 binding to EC compared to resting cells,αvβ3 integrin,6 fold
